Legend:
[1] = tested on: mTOR markers p-S6 and p-4EBP1; assay: mTOR inhibition: expression of mTOR markers; format: cell-based; settings: MDA-MB-231 cells, 6 hours
[2] = tested on: MDA-MB-231 breast cancer cells; assay: Mitochondrial membrane potential (JC-1), MDA-MB-231; format: cell-based; settings: MDA-MB-231 cells, 1 μM, 6 h
Procedure: (§1) Loss of mitochondrial membrane potential (Avm) represents one of the hallmarks of apoptosis. A JC-1 probe was employed to measure mitochondrial depolarization in cancer cells. MDA-MB-231 breast cancer cells were treated with different concentration of test compounds for 6 hours. JC-1 staining solution (5 μg/ml) was added at 37° C. for 20 min. After washing with PBS twice, mitochondrial membrane potentials were monitored by determining the relative amounts of dual emission from a multiple fluorescence reader. The fluorescence in cells was quantitatively analyzed by flow cytometry. Mitochondrial depolarization is depicted by an increase in the green/red fluorescence intensity ratio. ROS were monitored with the oxiadtion-senstive fluorescent probe 2′7′-dichlorodihydroflurescenin diacetate (DCF-DA).
In healthy cells with high Δψwm, JC-1 forms complexes with intense red fluorescence. However, in cells with low Δψm, JC-1 remains in the monomeric form with green fluorescence. Mitochondrial depolarization is depicted by an increase in the green/red fluorescence intensity ratio.

MDA-MB-231 cells = assay: Mitochondrial ROS, MDA-MB-231; format: cell-based; settings: dose dependent, 6 hours
Procedure: as §1

PyMT mammary tumor = assay: MMTV-PyMT mice breast cancer model; format: in vivo; settings: for growth of PyMT mammary tumor: 18 days
Procedure: Female MMTV-PyMT mice of 12 weeks old were randomly divided into two groups (n=7 each), treated with a daily oral dose of test compound for 18 days. Standard histopathological analysis of tumor tissue was performed (see Example A-19). Test compounds were dissolved in DMSO and diluted with normal saline containing 5.0% (V/V) Tween-80 to a final concentration 0.5 mg/ml. Normal saline with DMSO and 5.0% Tween-80 was employed as the vehicle control.
4 μm thick sections were deparaffinized and rehydrated using xylene and a graded series of ethanol (100, 95, 85, 75, 50%), followed by washing in PBS. Antigen retrieval was performed in 10 mM sodium citrate buffer (pH 6.0), which was microwaved at 100° C. for 20 minutes. After rinsed twice in PBS, sections were blocked at room temperature for 1 hour by using 10% normal goat serum, followed by incubation with anti-ki-67, anti-cleaved-caspase-3, overnight (at least 17 hours) at 4° C. Colors were developed with a DAB horseradish peroxidase color development kit.

MEFs = assay: Cell viability (MTT), MEFs; format: cell-based, mouse; settings: 6 hours, MTT (FIG. 8)
Procedure: Cell viability was analyzed by using a colorimetric 3-(4,5-dimethylthiazol-[…]2-yl)-2,5-diphenyletetrazolium Bromide (MTT) assay that determines mitochondrial dehydrogenase activities in the living cells with a colorimetric method. Cells treated with test compounds were incubated with MTT and their effect on the viability of the cells was assayed by the ability of treated cells to reduce the yellow tetrazolium dye MTT to its insoluble formazan, which has a purple color.
(§2) The apoptotic effect of Compound 1 was examined in mouse embryonic fibroblast (MEF) and MEF lacking Nur77 (Nur77^−/−MEF). […] Induction of PARP cleavage (as performed in Example A-7) in MEFs by Compound 1 at 0.5 μM was also attenuated in Nur77^−/−MEFs.

Nur77−/−MEFs = assay: PARP cleavage, Nur77-/- MEFs; format: cell-based, mouse; settings: 0.5 μM
Procedure: as §2

MEF cells = assay: Mitochondrial membrane potential (JC1), MEF; format: cell-based, mouse; settings: 0.5 μM, 6 h
Procedure: as §1
In addition, Bcl-2^−/−MEF cells were more resistant than the parental MEF cells to Compound 1 in its induction of the mitochondrial membrane potential loss measured by JC1 staining and in the release of mitochondrial ROS (as performed in Example A-12).

HeLa cells = assay: Mitochondrial membrane potential (JC1), HeLa; format: cell-based; settings: 6 h
Procedure: as §1
(§3) Furthermore, Nur77^−/−HeLa cells were more resistant than the parental HeLa cells to Compound 1 in its induction of the mitochondrial membrane potential loss measured by JC1 staining and in the release of mitochondrial ROS (as performed in Example A-12).
In addition, Bcl-2^−/−HeLa cells were more resistant than the parental HeLa cells to Compound 1 in its induction of the mitochondrial membrane potential loss measured by JC1 staining and in the release of mitochondrial ROS (as performed in Example A-12).

Nur77−/− HeLa cells = assay: Mitochondrial ROS, Nur77 knockout HeLa; format: cell-based
Procedure: as §1, §3

[3] = tested on: HEK293T cells transfected with Nur77-LBD; assay: Apoptosis in HEK293T cells transfected with Nur77-LBD (confocal microscopy); format: cell-based
Source text: The ligand-binding domain (LBD) of Nur77, Nur77-LBD, was transfected into HEK293T cells. Transfection of Nur77-LBD enhanced the apoptotic effect of Compound 1, with 36% of the transfected HEK293T cells undergoing apoptosis, while 4.5% of the non-transfected cells were apoptotic, as measured by confocal microscopy.

Nur77-LBD = molecular target: T1, Nur77-LBD (Homo sapiens, UniProt P22736); assay: Circular dichroism (CD) binding to Nur77-LBD; settings: purified Nur77-LBD, spectra changed at 50° C. and above (FIG. 9)
T1 construct: Protein spectra of purified Nur77-LBD at temperature 50° C. and above changed substantially; His (N); made in house
T1 sequence (P22736 360-595 limits assumed): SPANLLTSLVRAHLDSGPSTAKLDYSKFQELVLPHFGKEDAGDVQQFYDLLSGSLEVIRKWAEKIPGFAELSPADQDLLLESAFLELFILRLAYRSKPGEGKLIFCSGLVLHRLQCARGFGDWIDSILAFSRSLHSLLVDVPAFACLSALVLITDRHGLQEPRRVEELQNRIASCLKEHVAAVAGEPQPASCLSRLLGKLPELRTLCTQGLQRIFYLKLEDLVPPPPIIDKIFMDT
Procedure: Stock solutions of 100 mM test compound in ethanol were added to 0.5 ml of 1 μM purified His-proteins in PBS, pH 7.6. CD spectra were obtained in a 0.2 cm path length cell at temperature between 25° C. to 65° C. by using an AVIV 62 DS spectropolarimeter for a wavelength range at 220 nm. Three spectra were corrected for background and averaged for each sample. The Kd was determined using nonlinear regression analysis for a one-site binding model (χ2>0.98).

[4] = molecular target: T2, Nur77-LBD interaction with GST-Bcl-2 (Homo sapiens, UniProt P22736); assay: GST-pull down of Nur77-LBD by GST-Bcl-2; format: binding; settings: in vitro, GST-Bcl-2, FIG. 11
T2 construct: incubated with purified His-Nur77-LBD (0.2 mg) in the presence of Compound 1; made in house
T2 sequence (P22736 360-595 limits assumed): as above
T2 sequence (P10415 whole entry partner, the tested form may be a part): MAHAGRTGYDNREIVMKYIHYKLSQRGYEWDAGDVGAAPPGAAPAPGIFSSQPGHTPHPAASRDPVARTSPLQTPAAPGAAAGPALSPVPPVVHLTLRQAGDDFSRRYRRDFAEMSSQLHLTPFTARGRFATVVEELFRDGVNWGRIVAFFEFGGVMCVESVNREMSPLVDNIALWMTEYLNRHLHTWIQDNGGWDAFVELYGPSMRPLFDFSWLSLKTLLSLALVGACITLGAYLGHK
Procedure: GST or GST-Bcl-2 fusion protein (0.5 mg) was immobilized on glutathione-Sepharose beads and incubated with purified His-Nur77-LBD (0.2 mg) in the presence of Compound 1 for 1 hour at room temperature to promote GST-Bcl-2 interaction with His-Nur77-LBD. Bound Nur77-LBD was analyzed by Western blotting.

Q: With `FC(F)(F)c1ccc([C+](c2c[nH]c3ccccc23)c2c[nH]c3ccccc23)cc1` [Compound 1, Bis(1H-indol-3-yl)(4-(trifluoromethyl)phenyl)methylium methanesulfonate] as the compound, how does the “expression levels of mTOR marker p-4EBP1” value ([1]; 0.75 μM) read?
A: Its value is “reduced the expression levels”.

Q: What about the “expression levels of mTOR markers p-S6 and p-4EBP1” value ([1]; 1 μM) of the same compound?
A: The value was “reduced the expression levels”.

Q: What about the “JC-1 green to red ratio (control 100%)” value [2] of the same compound?
A: The value was 345%.

Q: And the “intracellular mitochondrial reactive oxygen species (mito-ROS)” value (MDA-MB-231 cells)?
A: The value was “marked increase”.

Q: And the “expression levels of mTOR markers p-S6 and p-mTOR in tumor” value (PyMT mammary tumor; 3 mg/kg)?
A: Its value is “markedly reduced”.

Q: And the “growth of PyMT mammary tumor” value (PyMT mammary tumor; 3 mg/kg daily oral)?
A: The value was “inhibited the growth of PyMT mammary tumor”.

Q: And the “growth of PyMT mammary tumor” value (PyMT mammary tumor; 5 mg/kg daily oral)?
A: Its value is “inhibited the growth of PyMT mammary tumor”.

Q: And the “expression levels of proliferation markers PCNA and Ki67 in tumor tissues” value (PyMT mammary tumor; 5 mg/kg, Western blotting)?
A: Its value is “markedly reduced”.

Q: And the “cleaved caspase 3 in tumor tissue specimens” value (PyMT mammary tumor; 5 mg/kg, immunostaining)?
A: Its value is “enhanced expression of cleaved caspase 3”.

Q: What about the “growth of MEFs” value (MEFs) of the same compound?
A: The value was “dose-dependently inhibited the growth of MEFs”.

Q: And the “induction of PARP cleavage relative to MEFs” value (Nur77−/−MEFs)?
A: The value was “attenuated”.

Q: And the “JC1 green to red ratio (control 100%)” value (MEF cells)?
A: Its value is 400%.

Q: What about the “JC1 green to red ratio (control 100%)” value (HeLa cells; 0.5 μM) of the same compound?
A: The value was 195%.

Q: And the “JC1 green to red ratio (control 100%)” value (HeLa cells; 1 μM)?
A: The value was 190%.

Q: And the “increase in mito-ROS relative to regular HeLa cells” value (Nur77−/− HeLa cells)?
A: The value was “smaller increase”.

Q: And the cells undergoing apoptosis [3]?
A: Its cells undergoing apoptosis is 36%.

Q: And the “binding to Nur77-LBD (CD spectra)” value (Nur77-LBD)?
A: The value was “direct binding”.

Q: What about the “Nur77-LBD pulled down (GST-pull down)” value [4] of the same compound?
A: Its value is “concentration dependent manner”.

— patent publication US20210024499A1, “OXIDIZED BIS(3-INDOLYL)METHANES AND USES THEREOF” (Sanford Burnam Prebys Medical Discovery Institute, priority 2018, published 2021)
